We go through 8 compounds from US10336707B2, “Heterocyclic derivatives modulating activity of certain protein kinases” (EUDENDRON S.R.L., priority 2014, dated 2019).

The subject of assay [1] is Karpas 299 lymphoma cell line positive for the oncogenic fusion protein NPM-ALK. The experiment in a line: Tritiated thymidine uptake cell proliferation assay, Karpas 299. The assay is classed as cell-based. Particulars: Homo sapiens, KARPAS-299; percentage of inhibition of cell proliferation at 200 nM; read-out: % Inhibition Karpas 299 cells. How it is done:
(§1) Method: Tritiated Thymidine Uptake Cell Proliferation Assay
(§2) The following procedure was used with parent untransformed BaF3 cells, BaF3 cells transformed with the oncogenic fusion protein NPM/ALK, NPM/ALK positive SUDHL-1 cells, NPM/ALK positive SUPM2, ALK-negative HL60 cells, NPM/ALK positive KARPAS-299 cells. The parent untransformed BaF3 cells or Alk-negative HL60 cells are used as controls. Cells were seeded in U-bottomed 96-well plates at 10000 cells/well in a volume of 100 μl in supplemented medium. In the case of the parent untransformed BaF3 cells, the medium was supplemented with IL-3. Serial dilutions of inhibitors were added to the appropriate wells and volumes adjusted to 200 μl. Controls were treated with the equivalent volume of vehicle, DMSO, alone. Plates were incubated at 37° C. for 72 h. 3[H]-thymidine (1 μCi/well) was added for the last 16 h of incubation. Cells were harvested on to paper filters and 3[H]-thymidine incorporation was measured using a scintillation counter (1430 MicroBeta, Wallac, Turku, Finland). The 50% inhibitory concentration (IC50) was defined as the concentration of inhibitor, expressed in nanomolar units, that gave a 50% decrease in 3[H]-thymidine uptake compared with controls.
In Table 1 are listed results for selected examples of compounds of the invention, reported as percentage of inhibition of cell proliferation at 200 nM, obtained from cellular assays in Karpas 299 lymphoma cell line positive for the oncogenic fusion protein NPM-ALK.

For assay [2], the target named is T1, BaF3 cell line transfected with the oncogenic fusion protein NPM-ALK and expressing the mutation L1196M (Homo sapiens, UniProt Q9UM73, L1196M, cells depend on it).
T1 construct: fused on or other part: P06748 (Nucleophosmin)
The experiment in a line: Tritiated thymidine uptake cell proliferation assay, BaF3 NPM-ALK L1196M. The conditions noted are these: for GI50: averaged IC50 values of cell proliferation inhibition, class letters, read-out: IC50 BaF3 NPM-ALK L1196M cells; for % Inhibition BaF3 NPM-ALK L1196M cells: percentage of inhibition of cell proliferation at 200 nM. The format is cell-based, murine. How it is done:
as §1, §2
In Table 2 are listed results for selected examples of compounds of the invention, reported as percentage of inhibition of cell proliferation at 200 nM, obtained from cellular assays in BaF3 cell line transfected with the oncogenic fusion protein NPM-ALK and expressing the mutation L1196M.
In Table 3 are listed averaged IC50 values of cell proliferation inhibition for selected examples of compounds of the present invention, obtained from cellular assays in BaF3 cell line transfected with the oncogenic fusion protein NPM-ALK and expressing the mutation L1196M. The letter “A” designates an IC50 value between 1 nM and 50 nM, the letter “B” designates an IC50 value between 50 nM and 100 nM, the letter “C” designates an IC50 value between 100 and 500 nM.

T1 sequence (Q9UM73 whole entry L1196M, the tested form may be a part): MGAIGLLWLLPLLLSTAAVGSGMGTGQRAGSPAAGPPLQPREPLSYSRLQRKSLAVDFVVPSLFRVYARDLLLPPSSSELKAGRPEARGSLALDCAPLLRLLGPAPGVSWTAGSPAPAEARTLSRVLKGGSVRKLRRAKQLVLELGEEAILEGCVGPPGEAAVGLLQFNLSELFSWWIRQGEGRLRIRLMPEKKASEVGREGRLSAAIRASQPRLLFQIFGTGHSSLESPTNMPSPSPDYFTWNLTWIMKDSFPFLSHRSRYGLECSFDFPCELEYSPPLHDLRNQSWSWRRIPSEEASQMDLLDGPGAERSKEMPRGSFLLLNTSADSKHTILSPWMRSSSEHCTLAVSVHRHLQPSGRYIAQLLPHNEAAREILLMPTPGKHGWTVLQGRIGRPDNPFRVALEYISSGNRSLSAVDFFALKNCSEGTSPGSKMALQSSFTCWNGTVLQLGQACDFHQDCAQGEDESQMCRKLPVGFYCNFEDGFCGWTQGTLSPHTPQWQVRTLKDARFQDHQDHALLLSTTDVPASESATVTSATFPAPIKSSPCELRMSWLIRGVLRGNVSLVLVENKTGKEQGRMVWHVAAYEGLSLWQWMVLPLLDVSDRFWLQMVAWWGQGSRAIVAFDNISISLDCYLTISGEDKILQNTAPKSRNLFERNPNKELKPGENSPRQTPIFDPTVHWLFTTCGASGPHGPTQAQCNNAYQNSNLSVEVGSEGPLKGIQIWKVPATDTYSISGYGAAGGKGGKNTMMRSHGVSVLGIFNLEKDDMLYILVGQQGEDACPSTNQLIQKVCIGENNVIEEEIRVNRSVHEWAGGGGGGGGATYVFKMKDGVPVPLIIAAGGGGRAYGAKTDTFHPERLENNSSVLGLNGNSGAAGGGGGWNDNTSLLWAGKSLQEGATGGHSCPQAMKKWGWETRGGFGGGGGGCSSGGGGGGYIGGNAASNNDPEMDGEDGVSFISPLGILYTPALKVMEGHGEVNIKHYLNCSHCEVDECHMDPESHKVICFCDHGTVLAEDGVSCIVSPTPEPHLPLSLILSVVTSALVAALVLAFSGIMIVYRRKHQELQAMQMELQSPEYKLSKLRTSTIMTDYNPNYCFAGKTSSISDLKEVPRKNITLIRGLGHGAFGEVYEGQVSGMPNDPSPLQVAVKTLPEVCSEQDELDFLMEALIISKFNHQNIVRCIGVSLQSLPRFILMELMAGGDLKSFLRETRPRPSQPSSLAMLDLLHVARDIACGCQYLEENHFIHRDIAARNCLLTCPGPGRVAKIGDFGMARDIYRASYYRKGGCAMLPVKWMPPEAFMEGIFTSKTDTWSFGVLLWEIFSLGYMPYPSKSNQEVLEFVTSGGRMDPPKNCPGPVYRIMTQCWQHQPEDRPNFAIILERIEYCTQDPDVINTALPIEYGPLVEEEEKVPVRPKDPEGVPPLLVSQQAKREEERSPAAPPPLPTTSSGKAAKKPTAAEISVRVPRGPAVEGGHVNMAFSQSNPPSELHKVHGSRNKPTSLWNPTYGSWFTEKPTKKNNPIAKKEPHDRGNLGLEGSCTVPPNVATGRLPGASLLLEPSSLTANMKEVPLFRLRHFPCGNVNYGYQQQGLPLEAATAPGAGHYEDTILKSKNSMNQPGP

The inhibition is the change of the read-out against control, counted positive when it falls. Consider `CN1CCN(c2ccc(C(=O)Nc3n[nH]c4cc(-c5cn[nH]c5)c(Cc5cc(F)cc(F)c5)cc34)c(NC3CCOCC3)c2)CC1` [Example 18, N-[5-[(3,5-difluorophenyl)methyl]-6-(1H-pyrazol-4-yl)-1H-indazol-3-yl]-4-(4-methylpiperazin-1-yl)-2-(tetrahydropyran-4-ylamino)benzamide], for which, in assay [1], the inhibition at 0.2 µM was found to be 100%. In assay [2], the GI50 lay within 100 to 500 nM and the “% Inhibition BaF3 NPM-ALK L1196M cells” value came to 97%.

Take `CN1CCN(c2ccc(C(=O)Nc3n[nH]c4cc(-c5cc(O)cc(F)c5)c(Cc5cc(F)cc(F)c5)cc34)c(NC3CCOCC3)c2)CC1` [Example 19, N-[5-[(3,5-difluorophenyl)methyl]-6-(3-fluoro-5-hydroxy-phenyl)-1H-indazol-3-yl]-4-(4-methylpiperazin-1-yl)-2-(tetrahydropyran-4-ylamino)benzamide]: the inhibition at 0.2 µM in assay [1] came to 99%. In assay [2], the GI50 was in the range of 50 to 100 nM and the “% Inhibition BaF3 NPM-ALK L1196M cells” value is on record as 100%.

In the case of `Cc1cc(-c2cc3[nH]nc(NC(=O)c4ccc(N5CCN(C)CC5)cc4NC4CCOCC4)c3cc2Cc2cc(F)cc(F)c2)ccc1O` [Example 21, N-[5-[(3,5-difluorophenyl)methyl]-6-(4-hydroxy-3-methyl-phenyl)-1H-indazol-3-yl]-4-(4-methylpiperazin-1-yl)-2-(tetrahydropyran-4-ylamino)benzamide], the inhibition at 0.2 µM in assay [1] turned out to be 100%. In addition, in assay [2], the GI50 lay in the range of 1 to 50 nM and the “% Inhibition BaF3 NPM-ALK L1196M cells” value amounted to 99%.

Take `CN1CCN(c2ccc(C(=O)Nc3n[nH]c4cc(-c5ccccc5)c(Cc5cc(F)cc(F)c5)cc34)c(NC3CCOCC3)c2)CC1` [Example 23, N-[5-[(3,5-difluorophenyl)methyl]-6-phenyl-1H-indazol-3-yl]-4-(4-methylpiperazin-1-yl)-2-(tetrahydropyran-4-ylamino)benzamide]: the inhibition at 0.2 µM in assay [1] is 71%. Further, in assay [2], the “% Inhibition BaF3 NPM-ALK L1196M cells” value came out at 61%.

Turning to `CN1CCN(c2ccc(C(=O)Nc3n[nH]c4cc(-c5ccc(O)c(F)c5)c(Cc5cc(F)cc(F)c5)cc34)c(NC3CCOCC3)c2)CC1` [Example 25, N-[5-[(3,5-difluorophenyl)methyl]-6-(3-fluoro-4-hydroxy-phenyl)-1H-indazol-3-yl]-4-(4-methylpiperazin-1-yl)-2-(tetrahydropyran-4-ylamino)benzamide], in assay [1], the inhibition at 0.2 µM turned out to be 100%. Besides, in assay [2], the GI50 fell in the range of 1 to 50 nM and the “% Inhibition BaF3 NPM-ALK L1196M cells” value was 100%.

Turning to `CN1CCN(c2ccc(C(=O)Nc3n[nH]c4cc(-c5ccc6[nH]ncc6c5)c(Cc5cc(F)cc(F)c5)cc34)c(NC3CCOCC3)c2)CC1` [Example 26, N-[5-[(3,5-difluorophenyl)methyl]-6-(1H-indazol-5-yl)-1H-indazol-3-yl]-4-(4-methylpiperazin-1-yl)-2-(tetrahydropyran-4-ylamino)benzamide], in assay [1], the inhibition at 0.2 µM came out at 99%. In assay [2], the GI50 lay in the range of 1 to 50 nM and the “% Inhibition BaF3 NPM-ALK L1196M cells” value was 99%.

As to `CN1CCN(c2ccc(C(=O)Nc3n[nH]c4cc(-c5cncnc5)c(Cc5cc(F)cc(F)c5)cc34)c(NC3CCOCC3)c2)CC1` [Example 27, N-[5-[(3,5-difluorophenyl)methyl]-6-(pyrimidin-5-yl)-1H-indazol-3-yl]-4-(4-methylpiperazin-1-yl)-2-(tetrahydropyran-4-ylamino)benzamide], the inhibition at 0.2 µM in assay [1] was found to be 87%. Moreover, the “% Inhibition BaF3 NPM-ALK L1196M cells” value in assay [2] was 62%.

As for `CN1CCN(c2ccc(C(=O)Nc3n[nH]c4cc(-c5ccc6c(c5)C(=O)NC6)c(Cc5cc(F)cc(F)c5)cc34)c(NC3CCOCC3)c2)CC1` [Example 28, N-[5-[(3,5-difluorophenyl)methyl]-6-(3-oxoisoindolin-5-yl)-1H-indazol-3-yl]-4-(4-methylpiperazin-1-yl)-2-(tetrahydropyran-4-ylamino)benzamide], the inhibition at 0.2 µM in assay [1] is 55%. Besides, the “% Inhibition BaF3 NPM-ALK L1196M cells” value in assay [2] was determined as 60%.
